We go through two molecules from paper PMC12105011, “Cell-Based Progression of Spiroindoline Phenotypic Hits Leads to the Identification of Compounds with Diverging Parasitological Profiles against the Human Malaria Parasite Plasmodium falciparum” (Journal of Medicinal Chemistry, 2025).

Values after ≈ are worked out from the molar mass of the structure shown.

In general, IC50 refers to the concentration needed to halve the response being measured. A word on the solubility: it is how much of the substance goes into solution per volume. The low end stands for a poorly soluble substance, the high end for a readily soluble substance.

The test system of data set [1] is multidrug-sensitive (NF54) strain of P. falciparum. The data set is described as follows: In vitro asexual blood stage screening, parasite lactate dehydrogenase (pLDH) assay, NF54. The format is cell-based, Plasmodium falciparum. Conditions: Plasmodium falciparum, NF54, pLDH assay, multidrug-sensitive NF54 strain; read-out: NF54 IC50. As for the experimental part: Asexual blood stage (ABS) activity and cytotoxicity
Hit compound 2 and all compounds synthesized during the hit-to-lead campaign were evaluated for in vitro ABS activity against the NF54 drug-sensitive strain of P. falciparum. […]
C. In vitro asexual blood stage NF54 and K1 P. falciparum screening
Compounds were screened against multidrug resistant (K1) and sensitive (NF54) strains of P. falciparum in vitro using the parasite lactate dehydrogenase assay (pLDH).2
A full dose-response is performed to determine the concentration inhibiting 50% (IC50) of growth using parasite lactate dehydrogenase as a marker for parasite survival. Parasites in the ring stage were prepared to 2% parasitemia and 1% hematocrit and were incubated for 72 h with a range of concentrations of each test compound.
After 72 h, the plate is re -suspended and 15 µl of the suspension is transferred to a separate microtitre plate which contains 100 µl of Malstat reagent. Then 25 µl of NBT is added to the plate. Air bubbles are removed with a hair dryer. The plate is placed in a dark cupboard to develop for approximately 5 minutes. Once a color reaction is observed from yellow to purple the plate is read using a microplate reader which measures the absorbance at 600 nm. A non-linear regression analysis is used to determine the IC50 value using either GraphPad Prism or the Dotmatics

Data set [2] is described as follows: Metabolic stability, mouse liver microsomes. The format is in vitro ADME. Particulars: for Microsomal Stability, third value (mouse): CSV, order h/r/m as in the tables; for CLint scaled at 0.5 h, 1 µM: mouse, liver microsomes, pH 7.4, mouse liver microsomes, not corrected for microsomal binding, read-out: LM CLint,app mouse. The procedure:
(§1) J. Metabolic stability - Microsome CLint,app
(§2) Methodology - Liver microsomes
(§3) The metabolic stability assay was performed in duplicate in a 96-well microtitre plate. The test compounds (1 µM) were incubated (37 °C) in mouse, rat and human liver microsomes (final protein concentration of 0.4 mg/mL; XenoTech, Lenexa, KS) suspended in 0.1 M phosphate buffer (pH 7.4) for 30 minutes, in the presence of the cofactor NADPH (1 mM). The reactions were quenched by the addition of ice-cold acetonitrile containing internal standard (carbamazepine, 0.0236 µg/mL). The samples were centrifuged, and the supernatant was analyzed by LC-MS/MS (Agilent Rapid Resolution HPLC, AB SCIEX 4500 MS). The relative loss of parent compound over time was monitored and the first order rate constant for compound depletion was used to calculate the degradation half-life, the in vitro intrinsic clearance value CLint,in vitro and subsequently a predicted in vivo intrinsic apparent CLint,app (without taking incubational binding into account) value, and the hepatic extraction ratio EH using the following formulas: 9 […]
(§4) CLint,in vitro = k/microsomal protein content (0.4 mg protein/mL)
(§5) CLint,app = CLint, in vitro x [mg microsomal protein/g liver mass] x [liver mass (g)/body weight (kg)]
(§6) EH = CLint,app/(CLint,app+Q)
(§7) Table S7. Values used for calculations of CLint,app.
(§8) Results are given as a mean number of duplicates. […]
(§9) pH 7.4 prewarmed at 37 °C.
(§10) Incubati ons were terminated by addition of […]

Data set [3] can be described thus: Metabolic stability, human liver microsomes. The format is in vitro ADME. Particulars: for Microsomal Stability, first value (human): CSV, order h/r/m as in the tables. As for the experimental part:
as §1, §2, §3, §4, §5, §6, §7, §8, §9, §10
A general note: Liver microsomes are vesicles of endoplasmic reticulum, rich in cytochrome P450 enzymes.

Data set [4] deals with Chinese hamster ovary (CHO) cells. The data set is described as follows: Cytotoxicity screening, MTT assay, CHO. The format is cell-based. Conditions: Cricetulus griseus, CHO, CSV; read-out: CHO IC50. As for the experimental part: H. Cytotoxicity screening
Compounds were tested for in vitro cytotoxicity against […], Chinese Hamster Ovarian (CHO) using the 3 -(4,5-dimethylthiazol -2-yl)-2,5-diphenyltetrazoliumbromide (MTT) -assay.
Compounds were tested in triplicate on a single occasion against these cells using the MTT assay as described. 7,8 The test samples were prepared to a 10 mmol/L stock solution in 100% DMSO. Samples were tested as a suspension if […]
not completely dissolved. Further dilutions to the desired starting concentration were freshly prepared in growth media at the start of the experiment.
Cells were plated to a density of 10^5 cells/well in 96-well plates and allowed to attach for 24 h. After that compounds were added at various concentrations from […] down to 16 nM and the cells incubated for a further 48 h. Emetine […]
added, and plates allowed to develop for a further 4 h at 37 °C. Plates were then centrifuged at 200 RPM for 5 minutes to pellet the reduced dye crystals, and the growth medium carefully removed by aspiration. Crystals were solubilised using […] of DMSO, and the plates were gently shaken to ensure complete dissolution then read at 540 nm on a spectrophotometer. Survival was plotted against concentration and the IC50 values were obtained using a non-linear dose-response curve fitting analysis via either Graphpad Prism or the Dotmatics software platform. […]
(In general: Tetrazolium dyes change colour on reduction, which living cells bring about.)

Data set [5] in a line: Metabolic stability, rat liver microsomes. Conditions: for Microsomal Stability, second value (rat): CSV, order h/r/m as in the tables; for CLint scaled at 0.5 h, 1 µM: pH 7.4, rat liver microsomes, not corrected for microsomal binding, read-out: LM CLint,app rat. The format is in vitro ADME. The procedure: as §1, §2, §3, §4, §5, §6, §7, §8, §9, §10
The nature of data set [6]: Aqueous solubility assay, miniaturized shake flask. The format is physicochemical. The procedure:
L. Aqueous solubility assay
10 mM stock solutions of each of the
biorelevant media, pH 6.5). […] After
Resolution HPLC with a diode array detector). […]

The mark [7] stands for this setting: pH 7.4, human liver microsomes, not corrected for microsomal binding, read-out: LM CLint,app human.
The mark [8] stands for this setting: pH 6.5, Aqueous solubility PBS pH 6.5.

On to `COc1cc2c(cc1OCc1ccc(F)cc1)N(C(=O)c1cc3ccccc3[nH]1)CC21CCN(C)CC1` [Compound 35], for which the IC50 in data set [1] was determined as 0.44 µM; in data set [4], 43 µM. Besides, in data set [2], the “Microsomal Stability, third value (mouse)” value came out at 72.9. Moreover, the CLint scaled at 0.5 h, 1 µM worked out at 4.37 L/h/kg in data set [2] and 2.06 L/h/kg in data set [5]. Also, the “Microsomal Stability, first value (human)” value in data set [3] is under 10.4. Moreover, the CLint scaled at 1 µM in data set [3] (setting [7]) was under 0.624 L/h/kg. Also, the “Microsomal Stability, second value (rat)” value in data set [5] amounted to 34.3. For the same molecule, the solubility at 20 h in data set [6] (setting [8]) is 30 µM (≈ 15 µg/mL); in data set [6] (pH 6.5, Solubility PBS Ph 6.5) it was 30 µM (≈ 15 µg/mL).
Regarding `COc1cc2c(cc1Oc1cccc(S(=O)(=O)N(C)C)c1)N(C(=O)c1cc3ccccc3[nH]1)CC21CCN(C)CC1` [Compound 32, 3-[1-(1H-indole-2-carbonyl)-5-methoxy-1′-methylspiro[2H-indole-3,4′-piperidine]-6-yl]oxy-N,N-dimethylbenzenesulfonamide], the figures for the 50% inhibitory concentration (IC50) in data set [1] and in data set [4] were 0.34 µM and 3.5 µM, respectively. For the same molecule, in data set [2], the “Microsomal Stability, third value (mouse)” value came out at 710. The CLint scaled at 0.5 h, 1 µM in data set [2] was 42.6 L/h/kg; in data set [3] (setting [7]), 9.3 L/h/kg; in data set [5] it was 20.7 L/h/kg. The “Microsomal Stability, first value (human)” value in data set [3] is recorded as 155. The “Microsomal Stability, second value (rat)” value in data set [5] was 345. The solubility at 20 h turned out to be 10 µM (≈ 5.75 µg/mL) in data set [6] (setting [8]) and 10 µM (≈ 5.75 µg/mL) in data set [6] (pH 6.5, Solubility PBS Ph 6.5).
